From ChEMBL document CHEMBL4823315 (Bioorg Med Chem Lett, 2021)

Assays:
Cytochrome P450 1A2 = biological target: T1, Cytochrome P450 1A2 (Homo sapiens, UniProt P05177); test: Inhibition of CYP1A2 (unknown origin); assay type: ADME
T1 sequence (P05177 whole entry): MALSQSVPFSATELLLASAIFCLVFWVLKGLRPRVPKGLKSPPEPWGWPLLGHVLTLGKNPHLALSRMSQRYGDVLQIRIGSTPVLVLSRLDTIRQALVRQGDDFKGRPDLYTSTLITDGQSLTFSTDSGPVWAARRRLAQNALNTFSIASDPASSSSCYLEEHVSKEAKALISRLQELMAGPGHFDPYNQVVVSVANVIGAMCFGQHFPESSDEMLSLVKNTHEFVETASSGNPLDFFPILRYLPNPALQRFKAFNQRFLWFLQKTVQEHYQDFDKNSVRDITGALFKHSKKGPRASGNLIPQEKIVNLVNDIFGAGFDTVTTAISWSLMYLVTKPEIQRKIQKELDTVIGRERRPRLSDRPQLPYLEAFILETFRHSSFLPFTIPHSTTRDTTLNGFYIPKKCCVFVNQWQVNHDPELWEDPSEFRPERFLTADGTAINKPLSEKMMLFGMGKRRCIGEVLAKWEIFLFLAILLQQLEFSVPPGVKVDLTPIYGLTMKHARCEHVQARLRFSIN

[1] = Half life in Sprague-Dawley rat at 5 mg/kg, po or 5 mg/kg, iv; assay type: ADME, organism-based; conditions: in vivo
[2] = Protein binding in human plasma assessed as unbound fraction; assay type: ADME, cell-free
Cytochrome P450 2C8 = biological target: T2, Cytochrome P450 2C8 (Homo sapiens, UniProt P10632); test: Inhibition of CYP2C8 (unknown origin); assay type: ADME
T2 sequence (P10632 whole entry): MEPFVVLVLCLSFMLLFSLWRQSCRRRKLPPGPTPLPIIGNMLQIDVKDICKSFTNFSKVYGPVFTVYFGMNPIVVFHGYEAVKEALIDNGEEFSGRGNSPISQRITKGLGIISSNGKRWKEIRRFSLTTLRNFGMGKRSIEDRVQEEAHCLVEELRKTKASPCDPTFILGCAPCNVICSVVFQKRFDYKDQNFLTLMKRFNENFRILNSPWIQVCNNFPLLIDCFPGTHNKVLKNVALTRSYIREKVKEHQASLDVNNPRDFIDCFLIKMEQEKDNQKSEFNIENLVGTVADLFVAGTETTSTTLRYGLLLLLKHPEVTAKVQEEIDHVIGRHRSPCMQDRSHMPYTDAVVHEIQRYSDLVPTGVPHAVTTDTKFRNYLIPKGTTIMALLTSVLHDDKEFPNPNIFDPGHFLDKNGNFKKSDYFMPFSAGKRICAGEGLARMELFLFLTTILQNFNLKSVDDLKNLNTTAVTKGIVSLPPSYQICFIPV

## NC(=O)c1c(N)ncnc1N1CCC(c2nc(-c3ccc(F)c(C(F)(F)F)c3)cn2CCN2CCC2)CC1
Cytochrome P450 1A2
  IC50: > 20 µM
[1]
  half-life: 1.5 h
[2]
  fraction unbound: 0.21
Cytochrome P450 2C8
  IC50: > 20 µM
